Measurements reported in publication PMC7265341, “Quantifying CDK inhibitor selectivity in live cells” (Nature Communications, 2020).
Like-named read-outs stand apart in the source and are kept apart here.

Assays:
CDK7 = CDK7 (Homo sapiens, UniProt P50613); test: NanoBRET live-cell target engagement, NanoLuc-CDK7 in HEK-293; assay type: binding; settings: for CDK7 Occupancy (%): Panel A
CDK8/Cyclin C = CDK8/Cyclin C (Homo sapiens, UniProt P49336); test: NanoBRET live-cell target engagement, NanoLuc-CDK8/Cyclin C in HEK-293; assay type: binding; settings: 10µM, read-out: CDK8/C Inhibition at 10µM (%)
CDK9/Cyclin K = CDK9/Cyclin K (Homo sapiens, UniProt P50750); test: NanoBRET live-cell target engagement, NanoLuc-CDK9/Cyclin K in HEK-293; assay type: binding; settings: 10µM, read-out: CDK9/K Inhibition at 10µM (%)
CDK11B/Cyclin L2 = CDK11B/Cyclin L2 (Homo sapiens, UniProt P21127); test: NanoBRET live-cell target engagement, CDK11B-NanoLuc/Cyclin L2 in HEK-293; assay type: binding; settings: read-out: CDK11b/L2 Inhibition at 10µM (%), 10µM
CDK12/Cyclin K = CDK12/Cyclin K (Homo sapiens, UniProt Q9NYV4); test: NanoBRET live-cell target engagement, CDK12-NanoLuc/Cyclin K in HEK-293; assay type: binding; settings: read-out: CDK12/K Inhibition at 10µM (%), 10µM
CDK13/Cyclin K = CDK13/Cyclin K (Homo sapiens, UniProt Q14004); test: NanoBRET live-cell target engagement, CDK13-NanoLuc/Cyclin K in HEK-293; assay type: binding; settings: 10µM, read-out: CDK13/K Inhibition at 10µM (%)
CDK14/Cyclin Y = CDK14/Cyclin Y (Homo sapiens, UniProt O94921); test: NanoBRET live-cell target engagement, CDK14-NanoLuc/Cyclin Y in HEK-293; assay type: binding; settings: for inhibition at 10 µM: read-out: CDK14/Y Inhibition at 10µM (%), 10µM
CDK15/Cyclin Y = CDK15/Cyclin Y (Homo sapiens, UniProt Q96Q40); test: NanoBRET live-cell target engagement, NanoLuc-CDK15/Cyclin Y in HEK-293; assay type: binding; settings: for inhibition at 10 µM: read-out: CDK15/Y Inhibition at 10µM (%), 10µM
CDK16/Cyclin Y = CDK16/Cyclin Y (Homo sapiens, UniProt Q00536); test: NanoBRET live-cell target engagement, CDK16-NanoLuc/Cyclin Y in HEK-293; assay type: binding; settings: for IC50: read-out: CDK16/Y IC50; for inhibition at 10 µM: read-out: CDK16/Y Inhibition at 10µM (%), 10µM
CDK17/Cyclin Y = CDK17/Cyclin Y (Homo sapiens, UniProt Q00537); test: NanoBRET live-cell target engagement, CDK17-NanoLuc/Cyclin Y in HEK-293; assay type: binding; settings: for IC50: read-out: CDK17/Y IC50; for inhibition at 10 µM: read-out: CDK17/Y Inhibition at 10µM (%), 10µM
CDK18/Cyclin Y = CDK18/Cyclin Y (Homo sapiens, UniProt Q07002); test: NanoBRET live-cell target engagement, CDK18-NanoLuc/Cyclin Y in HEK-293; assay type: binding; settings: for IC50: read-out: CDK18/Y IC50; for inhibition at 10 µM: read-out: CDK18/Y Inhibition at 10µM (%), 10µM
CDK20/Cyclin H = CDK20/Cyclin H (Homo sapiens, UniProt Q8IZL9); test: NanoBRET live-cell target engagement, NanoLuc-CDK20/Cyclin H in HEK-293; assay type: binding; settings: read-out: CDK20/H Inhibition at 10µM (%), 10µM
CDK19/Cyclin C = CDK19/Cyclin C (Homo sapiens, UniProt Q9BWU1); test: NanoBRET live-cell target engagement, NanoLuc-CDK19/Cyclin C in HEK-293; settings: read-out: CDK19/C Inhibition at 10µM (%), 10µM
CDK10/Cyclin L2 = CDK10/Cyclin L2 (Homo sapiens, UniProt Q15131); test: NanoBRET live-cell target engagement, CDK10-NanoLuc/Cyclin L2 in HEK-293; settings: for inhibition at 10 µM: read-out: CDK10/L2 Inhibition at 10µM (%), 10µM
CDK10/Cyclin L2, sequence (Q15131 whole entry): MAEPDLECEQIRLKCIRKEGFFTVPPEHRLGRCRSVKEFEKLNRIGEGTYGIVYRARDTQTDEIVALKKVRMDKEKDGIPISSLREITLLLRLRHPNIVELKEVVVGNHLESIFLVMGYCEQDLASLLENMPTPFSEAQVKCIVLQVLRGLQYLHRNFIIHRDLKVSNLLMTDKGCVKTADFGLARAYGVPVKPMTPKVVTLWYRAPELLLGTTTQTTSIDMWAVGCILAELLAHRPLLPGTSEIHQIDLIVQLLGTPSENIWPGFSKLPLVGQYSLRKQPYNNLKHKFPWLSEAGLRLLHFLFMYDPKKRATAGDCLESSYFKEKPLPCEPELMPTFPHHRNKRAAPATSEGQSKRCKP

CDK9/Cyclin K, sequence (P50750 whole entry): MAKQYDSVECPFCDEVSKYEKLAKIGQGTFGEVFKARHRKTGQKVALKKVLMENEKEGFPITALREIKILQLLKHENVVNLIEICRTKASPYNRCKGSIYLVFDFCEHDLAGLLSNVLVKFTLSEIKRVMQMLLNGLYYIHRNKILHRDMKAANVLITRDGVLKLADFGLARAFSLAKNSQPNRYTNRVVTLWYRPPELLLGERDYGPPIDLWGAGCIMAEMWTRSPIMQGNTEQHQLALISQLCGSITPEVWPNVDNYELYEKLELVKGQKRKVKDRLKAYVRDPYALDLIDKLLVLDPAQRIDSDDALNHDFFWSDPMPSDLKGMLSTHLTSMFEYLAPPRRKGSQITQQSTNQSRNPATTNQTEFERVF
CDK9/Cyclin K, sequence (O75909 whole entry partner): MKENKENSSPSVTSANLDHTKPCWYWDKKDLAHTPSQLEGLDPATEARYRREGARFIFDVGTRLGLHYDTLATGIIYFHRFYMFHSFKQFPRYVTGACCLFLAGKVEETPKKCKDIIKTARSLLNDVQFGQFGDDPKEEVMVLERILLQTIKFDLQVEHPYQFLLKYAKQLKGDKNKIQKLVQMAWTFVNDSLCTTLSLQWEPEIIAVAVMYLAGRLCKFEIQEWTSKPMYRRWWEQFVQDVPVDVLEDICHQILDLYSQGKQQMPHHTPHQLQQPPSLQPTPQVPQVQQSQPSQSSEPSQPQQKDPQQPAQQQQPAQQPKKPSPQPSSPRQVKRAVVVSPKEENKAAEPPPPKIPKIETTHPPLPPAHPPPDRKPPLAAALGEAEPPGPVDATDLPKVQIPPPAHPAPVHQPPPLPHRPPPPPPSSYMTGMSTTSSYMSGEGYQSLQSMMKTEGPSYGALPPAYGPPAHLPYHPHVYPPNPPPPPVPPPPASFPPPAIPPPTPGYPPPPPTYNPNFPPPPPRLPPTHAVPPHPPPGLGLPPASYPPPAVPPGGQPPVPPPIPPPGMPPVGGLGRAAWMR
CDK19/Cyclin C, sequence (Q9BWU1 whole entry): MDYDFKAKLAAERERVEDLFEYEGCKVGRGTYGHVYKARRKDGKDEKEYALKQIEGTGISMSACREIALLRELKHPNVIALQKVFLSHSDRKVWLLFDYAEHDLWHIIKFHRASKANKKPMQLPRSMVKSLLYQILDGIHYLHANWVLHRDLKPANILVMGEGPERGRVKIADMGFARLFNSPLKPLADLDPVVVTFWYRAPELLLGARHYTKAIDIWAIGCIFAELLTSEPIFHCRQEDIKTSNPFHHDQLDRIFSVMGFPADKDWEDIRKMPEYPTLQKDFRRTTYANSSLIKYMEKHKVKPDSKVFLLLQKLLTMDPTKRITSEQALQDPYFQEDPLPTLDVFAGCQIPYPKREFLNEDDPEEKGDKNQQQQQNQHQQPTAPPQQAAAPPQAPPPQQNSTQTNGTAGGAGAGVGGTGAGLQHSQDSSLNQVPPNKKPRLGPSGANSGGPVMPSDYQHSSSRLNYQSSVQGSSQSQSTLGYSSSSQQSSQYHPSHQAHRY
CDK19/Cyclin C, sequence (P24863 whole entry partner): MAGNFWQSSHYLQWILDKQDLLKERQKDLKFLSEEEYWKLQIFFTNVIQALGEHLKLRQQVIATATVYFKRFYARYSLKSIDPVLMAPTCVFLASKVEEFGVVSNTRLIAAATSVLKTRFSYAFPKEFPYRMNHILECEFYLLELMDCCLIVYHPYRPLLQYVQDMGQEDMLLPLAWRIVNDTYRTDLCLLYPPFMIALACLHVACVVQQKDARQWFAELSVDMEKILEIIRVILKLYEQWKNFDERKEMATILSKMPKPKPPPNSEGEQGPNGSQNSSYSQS
CDK8/Cyclin C, sequence (P49336 whole entry): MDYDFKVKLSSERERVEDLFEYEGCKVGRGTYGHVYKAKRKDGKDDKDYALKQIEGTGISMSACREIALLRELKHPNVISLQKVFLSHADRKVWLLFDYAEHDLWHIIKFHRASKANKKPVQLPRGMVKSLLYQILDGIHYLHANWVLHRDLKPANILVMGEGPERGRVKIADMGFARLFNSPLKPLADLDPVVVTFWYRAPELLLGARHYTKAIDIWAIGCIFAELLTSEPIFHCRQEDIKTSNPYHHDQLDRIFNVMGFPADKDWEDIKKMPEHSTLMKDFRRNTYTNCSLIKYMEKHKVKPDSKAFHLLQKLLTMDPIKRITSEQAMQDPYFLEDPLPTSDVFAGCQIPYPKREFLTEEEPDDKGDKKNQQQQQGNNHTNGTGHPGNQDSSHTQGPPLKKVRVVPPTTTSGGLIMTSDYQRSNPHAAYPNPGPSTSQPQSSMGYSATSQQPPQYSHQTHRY
CDK8/Cyclin C, sequence (P24863 whole entry partner): as the sequence (P24863 whole entry partner) above
CDK7, sequence (P50613 whole entry): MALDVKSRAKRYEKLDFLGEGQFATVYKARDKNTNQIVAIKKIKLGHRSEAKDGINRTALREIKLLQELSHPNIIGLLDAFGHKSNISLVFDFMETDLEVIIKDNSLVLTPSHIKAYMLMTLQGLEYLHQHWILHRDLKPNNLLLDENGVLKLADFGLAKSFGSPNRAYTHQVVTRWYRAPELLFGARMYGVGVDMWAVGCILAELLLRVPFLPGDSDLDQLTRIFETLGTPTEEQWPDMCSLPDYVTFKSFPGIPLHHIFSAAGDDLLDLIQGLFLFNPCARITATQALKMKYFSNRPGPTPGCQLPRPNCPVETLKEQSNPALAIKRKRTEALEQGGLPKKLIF
CDK16/Cyclin Y, sequence (Q00536 whole entry): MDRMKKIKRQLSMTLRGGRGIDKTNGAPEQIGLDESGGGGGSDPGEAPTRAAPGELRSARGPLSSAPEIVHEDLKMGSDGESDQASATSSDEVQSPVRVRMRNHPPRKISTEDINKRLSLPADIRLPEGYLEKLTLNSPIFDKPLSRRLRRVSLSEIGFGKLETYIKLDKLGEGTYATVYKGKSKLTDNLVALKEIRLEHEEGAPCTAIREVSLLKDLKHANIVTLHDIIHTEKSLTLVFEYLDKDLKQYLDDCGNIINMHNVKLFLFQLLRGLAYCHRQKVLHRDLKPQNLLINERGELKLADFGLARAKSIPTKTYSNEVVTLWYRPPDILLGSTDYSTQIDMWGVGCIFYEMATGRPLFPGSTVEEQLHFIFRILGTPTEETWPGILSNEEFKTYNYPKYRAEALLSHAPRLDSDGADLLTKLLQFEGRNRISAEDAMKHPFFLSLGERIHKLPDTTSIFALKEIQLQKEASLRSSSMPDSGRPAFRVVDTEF
CDK16/Cyclin Y, sequence (Q8ND76 whole entry partner): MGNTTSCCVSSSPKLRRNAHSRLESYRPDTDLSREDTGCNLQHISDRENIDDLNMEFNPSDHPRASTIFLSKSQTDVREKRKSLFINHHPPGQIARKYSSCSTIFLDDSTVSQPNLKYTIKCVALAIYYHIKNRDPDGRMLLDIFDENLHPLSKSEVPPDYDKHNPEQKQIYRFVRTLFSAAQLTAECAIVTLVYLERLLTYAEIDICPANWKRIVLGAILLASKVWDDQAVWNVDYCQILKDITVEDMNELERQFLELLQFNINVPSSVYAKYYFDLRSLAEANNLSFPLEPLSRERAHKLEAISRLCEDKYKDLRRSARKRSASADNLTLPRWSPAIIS
CDK15/Cyclin Y, sequence (Q96Q40 whole entry): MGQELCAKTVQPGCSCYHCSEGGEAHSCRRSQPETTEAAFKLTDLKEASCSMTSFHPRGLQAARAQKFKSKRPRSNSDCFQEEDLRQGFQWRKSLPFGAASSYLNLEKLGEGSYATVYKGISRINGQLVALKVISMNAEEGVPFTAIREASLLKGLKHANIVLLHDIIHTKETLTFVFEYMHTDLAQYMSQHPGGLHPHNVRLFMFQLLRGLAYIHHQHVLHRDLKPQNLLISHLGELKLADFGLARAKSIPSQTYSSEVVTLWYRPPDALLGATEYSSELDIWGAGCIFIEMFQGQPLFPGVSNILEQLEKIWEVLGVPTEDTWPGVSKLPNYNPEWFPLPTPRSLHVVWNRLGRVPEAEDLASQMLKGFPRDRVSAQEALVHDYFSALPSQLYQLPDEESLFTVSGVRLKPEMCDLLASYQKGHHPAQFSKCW
CDK15/Cyclin Y, sequence (Q8ND76 whole entry partner): as the sequence (Q8ND76 whole entry partner) above
CDK17/Cyclin Y, sequence (Q00537 whole entry): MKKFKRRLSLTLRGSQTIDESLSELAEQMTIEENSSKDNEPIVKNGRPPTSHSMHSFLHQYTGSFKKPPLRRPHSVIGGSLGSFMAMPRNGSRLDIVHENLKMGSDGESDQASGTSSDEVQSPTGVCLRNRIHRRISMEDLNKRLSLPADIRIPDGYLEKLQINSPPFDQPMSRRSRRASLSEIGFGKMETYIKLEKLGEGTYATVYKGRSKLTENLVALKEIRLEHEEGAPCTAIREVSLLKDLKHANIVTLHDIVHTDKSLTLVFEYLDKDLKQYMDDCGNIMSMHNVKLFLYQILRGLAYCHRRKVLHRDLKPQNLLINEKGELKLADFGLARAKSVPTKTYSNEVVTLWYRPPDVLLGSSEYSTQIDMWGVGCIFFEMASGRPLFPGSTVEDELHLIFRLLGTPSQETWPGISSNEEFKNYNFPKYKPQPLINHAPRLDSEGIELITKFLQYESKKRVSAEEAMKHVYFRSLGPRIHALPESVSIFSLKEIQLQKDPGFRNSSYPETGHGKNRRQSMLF
CDK17/Cyclin Y, sequence (Q8ND76 whole entry partner): as the sequence (Q8ND76 whole entry partner) above

SMILES: COCCN1CCN(Cc2ccc(-c3n[nH]c4c3C(=O)c3c(NC(=O)NN5CCOCC5)cccc3-4)cc2)CC1 [RGB286638]
- CDK7 Occupancy (%) (CDK7; LOG10([RGB-286638]) -0.90849 LOG10(µM)): 87.0886%
- CDK7 Occupancy (%) (CDK7; LOG10([RGB-286638]) -1.38561 LOG10(µM)): 72.7848%
- CDK7 Occupancy (%) (CDK7; LOG10([RGB-286638]) -1.86273 LOG10(µM)): 53.2911%
- CDK7 Occupancy (%) (CDK7; LOG10([RGB-286638]) -2.33985 LOG10(µM)): 31.2658%
- CDK7 Occupancy (%) (CDK7; LOG10([RGB-286638]) -2.81697 LOG10(µM)): 12.6582%
- CDK7 Occupancy (%) (CDK7; LOG10([RGB-286638]) -3.29409 LOG10(µM)): 6.329%
- CDK7 Occupancy (%) (CDK7; LOG10([RGB-286638]) -3.77121 LOG10(µM)): 1.266%
- IC50 (CDK7; average (± SEM where n=3), read-out: CDK7 IC50): 16 ± 5 nM
- IC50 (CDK7; independent experiment 1, read-out: CDK7 IC50): 11 nM
- IC50 (CDK7; independent experiment 2, read-out: CDK7 IC50): 11 nM
- IC50 (CDK7; independent experiment 3, read-out: CDK7 IC50): 26 nM
- IC50 (CDK7; live HEK-293, 2 h, mean ± S.E.M. (n=3) or mean (n=2), read-out: IC50 for CDK/cyclin complexes, CDK7): 12 to 16 nM
- inhibition at 10 µM (CDK8/Cyclin C; average of experiments): 55.6%
- inhibition at 10 µM (CDK8/Cyclin C; independent experiment 1): 21.9%
- inhibition at 10 µM (CDK8/Cyclin C; independent experiment 2): 89.3%
- inhibition at 10 µM (CDK9/Cyclin K; average of experiments): 94.7%
- inhibition at 10 µM (CDK9/Cyclin K; independent experiment 1): 90.7%
- inhibition at 10 µM (CDK9/Cyclin K; independent experiment 2): 98.8%
- inhibition at 10 µM (CDK11B/Cyclin L2; average of experiments): 32.6%
- inhibition at 10 µM (CDK11B/Cyclin L2; independent experiment 1): 19.9%
- inhibition at 10 µM (CDK11B/Cyclin L2; independent experiment 2): 45.2%
- inhibition at 10 µM (CDK12/Cyclin K; average of experiments): 47.5%
- inhibition at 10 µM (CDK12/Cyclin K; independent experiment 1): 30.7%
- inhibition at 10 µM (CDK12/Cyclin K; independent experiment 2): 64.4%
- inhibition at 10 µM (CDK13/Cyclin K; average of experiments): 49.1%
- inhibition at 10 µM (CDK13/Cyclin K; independent experiment 1): 33.8%
- inhibition at 10 µM (CDK13/Cyclin K; independent experiment 2): 64.5%
- IC50 (CDK14/Cyclin Y; average (± SEM where n=3), read-out: CDK14/Y IC50): 31 nM
- IC50 (CDK14/Cyclin Y; independent experiment 1, read-out: CDK14/Y IC50): 30 nM
- IC50 (CDK14/Cyclin Y; independent experiment 2, read-out: CDK14/Y IC50): 31 nM
- IC50 (CDK14/Cyclin Y; live HEK-293, 2 h, mean ± S.E.M. (n=3) or mean (n=2), read-out: IC50 for CDK/cyclin complexes, CDK14/Y): 31 nM
- inhibition at 10 µM (CDK14/Cyclin Y; average of experiments): 95.9%
- inhibition at 10 µM (CDK14/Cyclin Y; independent experiment 1): 94.1%
- inhibition at 10 µM (CDK14/Cyclin Y; independent experiment 2): 97.8%
- IC50 (CDK15/Cyclin Y; average (± SEM where n=3), read-out: CDK15/Y IC50): 14 nM
- IC50 (CDK15/Cyclin Y; independent experiment 1, read-out: CDK15/Y IC50): 14 nM
- IC50 (CDK15/Cyclin Y; independent experiment 2, read-out: CDK15/Y IC50): 13 nM
- IC50 (CDK15/Cyclin Y; live HEK-293, 2 h, mean ± S.E.M. (n=3) or mean (n=2), read-out: IC50 for CDK/cyclin complexes, CDK15/Y): 14 nM
- inhibition at 10 µM (CDK15/Cyclin Y; average of experiments): 97.4%
- inhibition at 10 µM (CDK15/Cyclin Y; independent experiment 1): 96.5%
- inhibition at 10 µM (CDK15/Cyclin Y; independent experiment 2): 98.2%
- IC50 (CDK16/Cyclin Y; average (± SEM where n=3)): 5.2 nM
- IC50 (CDK16/Cyclin Y; independent experiment 1): 5.4 nM
- IC50 (CDK16/Cyclin Y; independent experiment 2): 5 nM
- inhibition at 10 µM (CDK16/Cyclin Y; independent experiment 1): 95.2%
- inhibition at 10 µM (CDK16/Cyclin Y; independent experiment 2): 92.3%
- IC50 (CDK17/Cyclin Y; average (± SEM where n=3)): 6.6 nM
- IC50 (CDK17/Cyclin Y; independent experiment 1): 7.9 nM
- IC50 (CDK17/Cyclin Y; independent experiment 2): 5.3 nM
- inhibition at 10 µM (CDK17/Cyclin Y; average of experiments): 93.9%
- inhibition at 10 µM (CDK17/Cyclin Y; independent experiment 1): 95.7%
- inhibition at 10 µM (CDK17/Cyclin Y; independent experiment 2): 92.1%
- IC50 (CDK18/Cyclin Y; average (± SEM where n=3)): 10 nM
- IC50 (CDK18/Cyclin Y; independent experiment 1): 8.6 nM
- IC50 (CDK18/Cyclin Y; independent experiment 2): 11 nM
- inhibition at 10 µM (CDK18/Cyclin Y; average of experiments): 99.6%
- inhibition at 10 µM (CDK18/Cyclin Y; independent experiment 1): 97.4%
- inhibition at 10 µM (CDK18/Cyclin Y; independent experiment 2): 102%
- inhibition at 10 µM (CDK20/Cyclin H; independent experiment 1): 46%
- inhibition at 10 µM (CDK20/Cyclin H; independent experiment 2): 84.3%
- inhibition at 10 µM (CDK19/Cyclin C; average of experiments): 58%
- inhibition at 10 µM (CDK19/Cyclin C; independent experiment 1): 32.8%
- inhibition at 10 µM (CDK19/Cyclin C; independent experiment 2): 83.3%
- IC50 (CDK10/Cyclin L2; CDK10/L2 IC50 (nM), average (± SEM where n=3)): 790 nM
- IC50 (CDK10/Cyclin L2; CDK10/L2 IC50 (nM), independent experiment 1): 790 nM
- IC50 (CDK10/Cyclin L2; CDK10/L2 IC50 (nM), independent experiment 2): 780 nM
- IC50 (CDK10/Cyclin L2; IC50 for CDK/cyclin complexes, CDK10/L2, live HEK-293, 2 h, mean ± S.E.M. (n=3) or mean (n=2)): 790 nM
- inhibition at 10 µM (CDK10/Cyclin L2; average of experiments): 61.4%
- inhibition at 10 µM (CDK10/Cyclin L2; independent experiment 1): 37.8%
- inhibition at 10 µM (CDK10/Cyclin L2; independent experiment 2): 85.1%
